Active and inactive are the calls of the source. No cut-off for these calls is given here.
Tests used:
Mus musculus [1] = test: Hypoglycemic activity in C57BL/6 DIO mouse model assessed as fasting glucose levels at 30 mg/kg administered via gavage twice daily for 28 days measured on day 29 by OGTT; format: functional, organism-based; details: tested as the 2H-labelled form
[2] = AUC (0 to 24 hrs) in Sprague-Dawley rat at 10 mg/kg, po administered as single dose by LC-PDA-MS/MS analysis; format: ADME, organism-based; set-up: time < 24 hr, dose 10 mg/kg, route oral; details: in vivo
[3] = Cmax in Sprague-Dawley rat at 10 mg/kg, po administered as single dose by LC-PDA-MS/MS analysis; format: ADME, organism-based; set-up: dose 10 mg/kg, route oral; details: in vivo
[4] = Half life in Sprague-Dawley rat at 10 mg/kg, po administered as single dose by LC-PDA-MS/MS analysis; format: ADME, organism-based; details: in vivo
Mus musculus [5] = test: Hypoglycemic activity in C57BL/6 DIO mouse model assessed as decrease in blood glucose AUC (0 to 120 mins) at 30 mg/kg administered via gavage twice daily for 28 days measured before glucose challenge by OGTT; format: functional, organism-based; details: tested as the 2H-labelled form
Mus musculus [6] = test: Hypoglycemic activity in C57BL/6 DIO mouse model assessed as decrease in blood glucose AUC (0 to 120 mins) at 30 mg/kg administered via gavage twice daily for 28 days measured on day 29 by OGTT; format: functional, organism-based; details: tested as the 2H-labelled form
[7] = Clearance in Sprague-Dawley rat at 10 mg/kg, po administered as single dose by LC-PDA-MS/MS analysis; format: ADME, organism-based; details: in vivo
[8] = Plasma clearance in rat; format: ADME, organism-based
Mus musculus [9] = test: Toxicity in C57BL/6 DIO mouse model at 30 mg/kg administered via gavage twice daily for 28 days; format: organism-based; details: in vivo, po, 672 h
[10] = biological target: T1, Free fatty acid receptor 4 (Homo sapiens, UniProt Q5NUL3); test: Agonist activity at human FFAR4 expressed in CHO cells assessed as beta-arrestin recruitment after 90 mins by luminescence assay; format: functional, cell-based
T1 sequence (Q5NUL3 whole entry): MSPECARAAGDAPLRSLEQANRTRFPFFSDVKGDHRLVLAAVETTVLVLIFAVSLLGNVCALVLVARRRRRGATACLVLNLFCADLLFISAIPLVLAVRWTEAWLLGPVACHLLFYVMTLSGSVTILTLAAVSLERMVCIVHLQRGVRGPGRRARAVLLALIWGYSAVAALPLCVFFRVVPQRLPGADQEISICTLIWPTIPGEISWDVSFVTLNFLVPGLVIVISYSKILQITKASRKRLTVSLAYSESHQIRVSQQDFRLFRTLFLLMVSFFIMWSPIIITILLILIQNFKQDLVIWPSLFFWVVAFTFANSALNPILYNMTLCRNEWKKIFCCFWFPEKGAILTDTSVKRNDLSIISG

| AUC(0-t) at 24 h [2] [ng·h/mL] | Cmax [3] [ng/mL] | half-life [4] [h] | CL/F [7] [mL/min/kg] | clearance [8] [mL/min/kg] | EC50 [10] [µM] | SMILES | Activity (Mus musculus [1]) | Activity (Mus musculus [5]) | Activity (Mus musculus [6]) | Activity (Mus musculus [9]) |
| --- | --- | --- | --- | --- | --- | --- | --- | --- | --- | --- |
| 1370 | 969 | 0.79 | 61.2 | 61.2 | – | Cc1ccc(-c2ccc(F)cc2COc2ccc(CCC(=O)O)cc2)cc1 | Active | inactive | Active | – |
| 6280 | 2040 | 1.66 | 16.2 | – | – | [2H]C([2H])(Cc1ccc(OCc2cc(F)ccc2-c2ccc(C)cc2)cc1)C(=O)O | – | – | – | Non-Toxic |
| – | – | – | – | – | > 10 | Cc1cc(OCCCS(C)(=O)=O)cc(C)c1-c1cccc(COc2ccc3c(c2)OC[C@H]3CC(=O)O)c1 | – | – | – | – |

From ChEMBL document CHEMBL4177656, “Improving metabolic stability with deuterium: The discovery of GPU-028, a potent free fatty acid receptor 4 agonists” (Bioorg Med Chem, 2017)
